According to ChEMBL document CHEMBL2057130, “Bruton's tyrosine kinase inhibitors: approaches to potent and selective inhibition, preclinical and clinical evaluation for inflammatory diseases and B cell malignancies” (J Med Chem, 2012):
Values belong to the molecule of their own block, whether it stands above or below them.

Legend:
[1] = Inhibition of anti-IgM-induced human B cell proliferation; type: functional, cell-based
Macrophage [2] = experiment: cells
Description: (§1) Inhibition of immobilized immune complex-stimulated TNFalpha production in macrophages

Blood [3] = experiment: Inhibition of CD63 expression in human whole blood; type: functional, tissue-based
Mus musculus [4] = experiment: Antiarthritic effect in mouse CIA model assessed as inhibition of clinical arthritis scores dosed prophylactically through subcutaneous route; type: functional
[5] = Clearance in po dosed rat; type: ADME, organism-based; settings: in vivo
[6] = Oral bioavailability in dosed rat; type: ADME, organism-based; settings: in vivo
Splenocyte = experiment: Inhibition of mouse B-cell splenocyte activation by cell proliferation assay; type: functional, cell-based
[7] = target: T1, Tyrosine-protein kinase BTK (Homo sapiens, UniProt Q06187)
Description: Inhibition of human BTK by enzymatic assay

Blood [8] = experiment: Inhibition of IgM-stimulated CD69 expression in human whole blood; type: functional, tissue-based
Macrophage [9] = tested on: Macrophage
Description: as §1

Rattus norvegicus = experiment: Inhibition of hypersensitive immune responses in rat passive cutaneous anaphylaxis model at 30 mg/kg; type: functional
Mus musculus [10] = experiment: Inhibition of anti-IgD antibody stimulated CD69 expression in mouse CIA model dosed prophylactically at 3 to 100 mg/kg, po measured 24 hrs post dose; type: functional; settings: dose mg/kg 3-100
[11] = target: T1, Tyrosine-protein kinase BTK; experiment: Inhibition of BTK in human Ramos cells by FLIPR assay; type: cell-based

T1 sequence (Q06187 whole entry): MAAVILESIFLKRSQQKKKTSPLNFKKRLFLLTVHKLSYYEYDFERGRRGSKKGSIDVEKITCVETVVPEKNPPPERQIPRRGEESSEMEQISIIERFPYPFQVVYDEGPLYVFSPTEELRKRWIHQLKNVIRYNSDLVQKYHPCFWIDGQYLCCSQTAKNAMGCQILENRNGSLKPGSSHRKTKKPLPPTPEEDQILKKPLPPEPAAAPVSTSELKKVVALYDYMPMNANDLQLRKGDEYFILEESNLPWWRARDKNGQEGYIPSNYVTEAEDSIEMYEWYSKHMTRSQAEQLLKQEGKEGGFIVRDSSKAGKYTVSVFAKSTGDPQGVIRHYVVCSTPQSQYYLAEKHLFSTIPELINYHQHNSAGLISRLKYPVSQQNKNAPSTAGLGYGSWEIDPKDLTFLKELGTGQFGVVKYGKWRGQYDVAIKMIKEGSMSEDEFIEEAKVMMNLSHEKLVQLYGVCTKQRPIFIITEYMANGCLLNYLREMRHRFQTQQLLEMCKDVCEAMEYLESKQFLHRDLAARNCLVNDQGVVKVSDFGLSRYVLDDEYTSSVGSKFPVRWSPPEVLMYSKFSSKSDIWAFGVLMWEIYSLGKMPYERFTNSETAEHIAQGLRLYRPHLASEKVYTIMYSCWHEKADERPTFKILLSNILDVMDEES
Description for Mast cell: Inhibition of IgE-Fce cross-linking induced histamine release in mast cells

Compound: Cc1ccccc1Nc1nc2cc(F)c(N(C)C(=O)/C=C/CN(C)C)cc2n2cncc12
IC50 (Splenocyte): 3.41 nM

Compound: C=CC(=O)N1CCCC(c2c(Cl)c(-c3ccc(Oc4ccc(Cl)c(Cl)c4)c(OC)c3)c3c(N)ncnn23)C1 (stereo not given)
IC50 (Splenocyte): 130 nM

Compound: CN1CCN(c2ccc(Nc3cc(-c4cccc(-n5ccc6cc(C7CC7)cc(F)c6c5=O)c4CO)cn(C)c3=O)nc2)CC1
IC50 (Macrophage [9]): 4 nM
IC50 (Blood [8]): 17 nM
IC50 (Mast cell): 29.2 nM
inhibition in vivo at 30 mg/kg (Rattus norvegicus): 91%
inhibition (INH) (Mus musculus [10]): 50%

Compound: Cc1c(-c2ccc(C(N)=O)c3[nH]c4cc(C(O)CO)ccc4c23)cccc1-n1cnc2ccc(F)cc2c1=O (stereo not given)
IC50 [11]: 11 nM

Compound: CC(C)(C)c1ccc(C(=O)N[C@@H]2CCCN(c3nc(Nc4ccc(C(=O)N5CCNCC5)cc4)c4nccn4n3)C2)cc1
IC50 (Splenocyte): 56 nM

Compound: O=C(N[C@@H]1CCCN(c2ncnc3[nH]ccc23)C1)[C@H](Nc1ccccc1)C1CC1
IC50 [7]: < 100 nM

Compound: O=C(CNc1ccccc1S(=O)(=O)N1CCCCC1)N[C@@H]1CCCN(c2ncnc3[nH]ccc23)C1
IC50 [7]: < 100 nM

Compound: CN1CCC(=C2c3ccccc3C=Cc3ccccc32)CC1 [CYPROHEPTADINE]
inhibition in vivo at 30 mg/kg (Rattus norvegicus): 69%

Now from value to molecule, other results behind:

EC50 (Blood [3]): 1200 nM
CL/F [5]: 86 mL/min/kg
bioavailability [6]: < 1%
Compound: Cc1c(NC(=O)c2ccc(C(C)(C)C)cc2)cccc1-c1cn(C)c(=O)c(Nc2ccc(C(=O)N3CCOCC3)cc2)n1
IC50 [1]: 42 nM
IC50 (Macrophage [2]): 25 nM
inhibition (INH) (Mus musculus [4]): >97%

IC50 [7]: 8.2 nM
Compound: Nc1ncnc2c1c(-c1ccc(Oc3ccccc3)cc1)nn2C1CCCC1

IC50 [7]: 400 nM
Compound: CC(C)(C)c1ccc(C(=O)Nc2cccc(-c3cn4ccnc4c(Nc4ccccc4)n3)c2)cc1

IC50 (Blood [8]; Homo sapiens, Blood): 4 nM
Compound: CN1CCN(c2ccc(Nc3cc(-c4cccc(N5CCOc6cc(C(C)(C)C)ccc6C5=O)c4CO)cn(C)c3=O)nc2)CC1

IC50 [7]: 144 nM
Compound: Cc1c(NC(=O)c2ccc(N(C)C)cc2)cccc1-c1nc(Nc2ccc(C(=O)N3CCOCC3)cc2)c2nccn2n1
IC50 (Splenocyte): 142 nM

IC50 [7]: 30 nM
Compound: Cc1c(NC(=O)c2ccc(N(C)C)cc2)cccc1-c1nc(Nc2ccc(C(=O)N3CCOCC3)cc2)c2ncc(N)n2n1
IC50 (Splenocyte): 32 nM
